Counter-ions that a name gives are not always drawn.
Key:
[1] = target: Human CB2R (Cannabinoid receptor 2) (Homo sapiens (Human), UniProt P34972); experiment: CB-2 in vitro cAMP assay (HTRF), inverse agonism; format: cell-based; settings: mean where tested more than once
[2] = target: Human CB1R (Cannabinoid receptor 1) (Homo sapiens (Human), UniProt P21554); experiment: CB-1 in vitro cAMP assay (HTRF), inverse agonism; format: cell-based; settings: mean where tested more than once
Sequence of Human CB1R (Cannabinoid receptor 1) (P21554 whole entry): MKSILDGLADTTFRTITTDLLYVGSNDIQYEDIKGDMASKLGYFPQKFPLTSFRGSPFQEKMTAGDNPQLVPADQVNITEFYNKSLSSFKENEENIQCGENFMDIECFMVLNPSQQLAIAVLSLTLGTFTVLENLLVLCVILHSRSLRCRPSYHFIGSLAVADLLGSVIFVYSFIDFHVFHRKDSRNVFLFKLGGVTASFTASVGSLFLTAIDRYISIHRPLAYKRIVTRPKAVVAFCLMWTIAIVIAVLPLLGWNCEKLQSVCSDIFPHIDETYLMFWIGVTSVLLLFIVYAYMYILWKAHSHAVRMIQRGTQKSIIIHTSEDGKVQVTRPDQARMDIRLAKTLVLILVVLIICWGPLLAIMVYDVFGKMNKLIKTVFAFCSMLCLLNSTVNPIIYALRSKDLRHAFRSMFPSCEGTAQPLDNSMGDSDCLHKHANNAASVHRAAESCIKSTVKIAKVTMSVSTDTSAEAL

Sequence of Human CB2R (Cannabinoid receptor 2) (P34972 whole entry): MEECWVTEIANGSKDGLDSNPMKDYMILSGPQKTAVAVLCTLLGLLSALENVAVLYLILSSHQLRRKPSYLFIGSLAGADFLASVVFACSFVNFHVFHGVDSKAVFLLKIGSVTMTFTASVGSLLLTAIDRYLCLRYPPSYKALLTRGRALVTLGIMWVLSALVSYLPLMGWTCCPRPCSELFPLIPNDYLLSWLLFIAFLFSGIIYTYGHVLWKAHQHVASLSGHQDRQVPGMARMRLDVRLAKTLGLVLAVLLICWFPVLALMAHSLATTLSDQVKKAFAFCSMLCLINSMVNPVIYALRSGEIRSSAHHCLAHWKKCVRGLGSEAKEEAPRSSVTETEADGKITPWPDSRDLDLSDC

Row | Structure (SMILES) | EC50 [1] | EC50 [2]
1 | COCCNc1cc(C(c2ccc(Cl)cc2)c2ccc(Cl)cc2)cc2c(NC3CCN(S(=O)(=O)C(F)(F)F)CC3)cc(=O)[nH]c12 [Compound 100, 6-(bis(4-chlorophenyl)methyl)-8-((2-methoxyethyl)amino)-4-((1-((trifluoromethyl)sulfonyl)piperidin-4-yl)amino)quinolin-2(1H)-one] | 200 nM | 6 nM
2 | Clc1ccc(C(c2ccc(Cl)cc2)c2ccc3nccc(/C=C/c4ccccc4)c3c2)cc1 [Compound 503, (E)-6-(bis(4-chlorophenyl)methyl)-4-styrylquinoline] | > 10000 nM | 191 nM
3 | COCCCc1cc(C(c2ccc(Cl)cc2)c2ccc(Cl)cc2)cc2c(NC3CCN(S(=O)(=O)C(F)(F)F)CC3)cc(OC)nc12 [Compound 548, 6-[bis(4-chlorophenyl)methyl]-2-methoxy-8-(3-methoxypropyl)-N-[1-(trifluoromethane)sulfonylpiperidin-4-yl]quinolin-4-amine] | > 42000 nM | 58 nM
4 | O=S(=O)(Oc1cc(C2=CCN(S(=O)(=O)C(F)(F)F)CC2)c2cc(C(c3ccc(Cl)cc3)c3ccc(Cl)cc3)ccc2n1)C(F)(F)F [Compound 519, 6-(bis(4-chlorophenyl)methyl)-4-(1-((trifluoromethyl)sulfonyl)-1,2,3,6-tetrahydropyridin-4-yl)quinolin-2-yl trifluoromethanesulfonate] | 40 nM | > 10000 nM
5 | OC(c1ccc(Cl)cc1)(c1ccsc1)c1ccc2nccc(/C=C/c3ccccc3)c2c1 (stereo not shown) [Compound 507, (4-Chlorophenyl){4-[(E)-2-phenylethenyl]quinolin-6-yl}thiophen-3-ylmethanol] | > 10000 nM | 5480 nM
6 | CC(C)(C)Oc1cc(/C=C/c2cccc(F)c2)c2cc(C(O)(c3ccc(Cl)cc3)c3ccsc3)ccc2n1 (stereo not shown) [Compound 518, (E)-(2-(tert-butoxy)-4-(3-fluorostyryl)quinolin-6-yl)(4-chlorophenyl)(thiophen-3-yl)methanol] | 540 nM | > 10000 nM
7 | Cc1ccc(Nc2cc(=O)[nH]c3ccc(C(c4ccc(Cl)cc4)c4ccc(Cl)cc4)cc23)cn1 [Compound 134, 6-[Bis(4-chlorophenyl)methyl]-4-[(6-methylpyridin-3-yl)amino]quinolin-2(1H)-one] | 6700 nM | 300 nM
8 | O=C(O)CCCCOc1cc(C(c2ccc(Cl)cc2)c2ccc(Cl)cc2)cc2c(NC3CCN(S(=O)(=O)C(F)(F)F)CC3)ccnc12 [Compound 537, 5-((6-(bis(4-chlorophenyl)methyl)-4-((1-((trifluoromethyl)sulfonyl)piperidin-4-yl)amino)quinolin-8-yl)oxy)pentanoic acid] | 2380 nM | 108 nM
9 | NC(=O)Cc1ccc(Nc2cc(=O)[nH]c3ccc(C(c4ccc(Cl)cc4)c4ccc(Cl)cc4)cc23)cc1 [Compound 126, 2-[4-({6-[Bis(4-chlorophenyl)methyl]-2-oxo-1,2-dihydroquinolin-4-yl}amino)phenyl]acetamide] | 8100 nM | 79 nM
10 | COc1cc(NC2CCN(S(=O)(=O)C(F)(F)F)CC2)c2cc(C(c3ccc(Cl)cc3)c3ccc(Cl)cc3)cc(/C=C/CO)c2n1 [Compound 549, (2E)-3-[6-[bis(4-chlorophenyl)methyl]-2-methoxy-4-[[1-(trifluoromethane)sulfonylpiperidin-4-yl]amino]quinolin-8-yl]prop-2-en-1-ol] | 3800 nM | 36 nM
11 | O=c1cc(NC2CCN(S(=O)(=O)C(F)(F)F)CC2)c2cc(C(c3ccc(Cl)cc3)c3nc4ccccc4s3)ccc2[nH]1 (stereo not shown) [Compound 65, 6-[1,3-Benzothiazol-2-yl(4-chlorophenyl)methyl]-4-({1-[(trifluoromethyl)sulfonyl]-piperidin-4-yl}amino)quinolin-2(1H)-one] | 4300 nM | 64 nM
12 | O=C(O)CCC(=O)N1CCC(Nc2cc(=O)[nH]c3ccc(C(c4ccc(Cl)cc4)c4ccc(Cl)cc4)cc23)CC1 [Compound 98, 4-(4-((6-(bis(4-chlorophenyl)methyl)-2-oxo-1,2-dihydroquinolin-4-yl)amino)piperidin-1-yl)-4-oxobutanoic acid] | > 10000 nM | 242 nM
13 | O=c1cc(Nc2ccc(Cl)c(F)c2)c2cc(C(c3ccc(Cl)cc3)c3ccc(Cl)cc3)ccc2[nH]1 [Compound 83, 6-[Bis(4-chlorophenyl)methyl]-4-[(4-chloro-3-fluorophenyl)amino]quinolin-2(1H)-one] | > 10000 nM | 11 nM
14 | COc1ccc(C(c2ccc(Cl)cc2)c2ccc3[nH]c(=O)cc(NC4CCN(S(=O)(=O)C(F)(F)F)CC4)c3c2)cc1 (stereo not shown) [Compound #54, 6-((4-chlorophenyl)(4-methoxyphenyl)methyl)-4-((1-((trifluoromethyl)sulfonyl)piperidin-4-yl)amino)quinolin-2(1H)-one] | 1830 nM | 8 nM
15 | NC(=O)CCCOc1ccc(Nc2cc(=O)[nH]c3ccc(C(c4ccc(Cl)cc4)c4ccc(Cl)cc4)cc23)cc1 [Compound 123, 4-[4-({6-[Bis(4-chlorophenyl)methyl]-2-oxo-1,2-dihydroquinolin-4-yl}amino)phenoxy]butanamide] | > 10000 nM | 219 nM
16 | O=c1cc(/C=C/c2cccc(C(F)(F)F)c2)c2cc(C(c3ccc(Cl)cc3)c3cccs3)ccc2[nH]1 (stereo not shown) [Compound 26, 6-[(4-Chlorophenyl)(thiophen-2-yl)methyl]-4-{(E)-2-[3-(trifluoromethyl)phenyl]-ethenyl}quinolin-2(1H)-one] | > 10000 nM | 333 nM
17 | O=C(O)CCCCCOc1cc(NC2CCN(S(=O)(=O)C(F)(F)F)CC2)c2cc(C(c3ccc(Cl)cc3)c3ccc(Cl)cc3)ccc2n1 [Compound 535, 6-({6-[Bis(4-chlorophenyl)methyl]-4-({1-[(trifluoromethyl)sulfonyl]-piperidin-4-yl}amino)quinolin-2-yl}oxy)hexanoic acid] | 60 nM | 92 nM
18 | COCCn1c(=O)cc(NC2CCN(S(=O)(=O)C(F)(F)F)CC2)c2cc(C(c3ccc(Cl)cc3)c3ccc(Cl)cc3)ccc21 [Compound 110, 6-(bis(4-chlorophenyl)methyl)-1-(2-methoxyethyl)-4-((1-((trifluoromethyl)sulfonyl)piperidin-4-yl)amino)quinolin-2(1H)-one] | > 10000 nM | 228 nM
19 | O=c1cc(NC2CCN(S(=O)(=O)C(F)(F)F)CC2)c2cc(C(c3ccc(Cl)cc3)c3ccc(Cl)c(Cl)c3)ccc2[nH]1 (stereo not shown) [Compound #53, 6-[(4-chlorophenyl)(3,4-dichlorophenyl)methyl]-4-[[1-(trifluoromethane)sulfonylpiperidin-4-yl]amino]-1,2-dihydroquinolin-2-one] | > 14000 nM | 20 nM
20 | O=S(=O)(N1CCC(Nc2ccnc3c(O)cc(C(c4ccc(Cl)cc4)c4ccc(Cl)cc4)cc23)CC1)C(F)(F)F [Compound 541, 6-(bis(4-chlorophenyl)methyl)-4-((1-((trifluoromethyl)sulfonyl)piperidin-4-yl)amino)quinolin-8-ol] | > 10000 nM | 339 nM
21 | O=c1cc(NC2CCN(S(=O)(=O)c3ccccc3)CC2)c2cc(C(c3ccc(Cl)cc3)c3ccc(Cl)cc3)ccc2[nH]1 [Compound 80, 6-[Bis(4-chlorophenyl)methyl]-4-{[1-(phenylsulfonyl)piperidin-4-yl]amino}quinolin-2(1H)-one] | > 10000 nM | 14 nM
22 | O=c1cc(NC2CCN(S(=O)(=O)C3CC3)CC2)c2cc(C(c3ccc(Cl)cc3)c3ccc(Cl)cc3)ccc2[nH]1 [Compound 67, 6-[Bis(4-chlorophenyl)methyl]-4-{[1-(cyclopropylsulfonyl)piperidin-4-yl]amino}quinolin-2(1H)-one] | > 10000 nM | 15 nM
23 | OC(c1ccc(Cl)cc1)(c1ccc2nccc(/C=C/c3ccccc3)c2c1)c1cccs1 (stereo not shown) [Compound 506, (4-Chlorophenyl){4-[(E)-2-phenylethenyl]quinolin-6-yl}thiophen-2-ylmethanol] | > 10000 nM | > 10000 nM
24 | O=c1cc(/C=C/c2cccc(F)c2)c2cc(C(c3ccc(Cl)cc3)c3nccs3)ccc2[nH]1 (stereo not shown) [Compound 38, (E)-6-((4-chlorophenyl)(thiazol-2-yl)methyl)-4-(3-fluorostyryl)quinolin-2(1H)-one] | > 10000 nM | 497 nM
25 | CC(C)(C)OC(=O)N1CC=C(c2cc(=O)[nH]c3ccc(C(c4ccc(Cl)cc4)c4ccc(Cl)cc4)cc23)CC1 [Compound 13, tert-Butyl 4-{6-[bis(4-chlorophenyl)methyl]-2-oxo-1,2-dihydroquinolin-4-yl}-3,6-dihydropyridine-1(2H)-carboxylate] | > 10000 nM | 403 nM
26 | NCCCCOc1cc(C(c2ccc(Cl)cc2)c2ccc(Cl)cc2)cc2c(NC3CCN(S(=O)(=O)C(F)(F)F)CC3)ccnc12 [Compound 542, 8-(4-aminobutoxy)-6-(bis(4-chlorophenyl)methyl)-N-(1-((trifluoromethyl)sulfonyl)piperidin-4-yl)quinolin-4-amine, trifluoroacetic acid salt] | > 10000 nM | 144 nM
27 | O=c1cc(/C=C/c2ccc(C(F)(F)F)cc2)c2cc(C(c3ccccc3)c3ccc(Cl)cc3)ccc2[nH]1 (stereo not shown) [Compound 33, 6-[(4-Chlorophenyl)(phenyl)methyl]-4-{(E)-2-[4-(trifluoromethyl)phenyl]-ethenyl}quinolin-2(1H)-one] | > 10000 nM | 1210 nM
28 | O=c1cc(NC2CCN(c3ccccn3)CC2)c2cc(C(c3ccc(Cl)cc3)c3ccc(Cl)cc3)ccc2[nH]1 [Compound 68, 6-[Bis(4-chlorophenyl)methyl]-4-[(1-pyridin-2-ylpiperidin-4-yl)amino]quinolin-2(1H)-one] | > 10000 nM | 6 nM
29 | O=C(O)c1cccc(CN2CCC(Nc3cc(=O)[nH]c4ccc(C(c5ccc(Cl)cc5)c5ccc(Cl)cc5)cc34)CC2)c1 [Compound 129, 3-((4-((6-(bis(4-chlorophenyl)methyl)-2-oxo-1,2-dihydroquinolin-4-yl)amino)piperidin-1-yl)methyl)benzoic acid] | > 10000 nM | 157 nM
